The values that follow come from PubChem BioAssay (NCI).

Common to all, as to experiment: NCI-60 cell line screen, 48 h
Assay [1] concerns HT29 colon.
Assay [2] concerns M14 melanoma.
Assay [3] has as its system MDA-MB-435.
Assay [4] deals with NCI-H23 lung.
For assay [5], the system named is SF-268 CNS.
Assay [6] has as its system SK-MEL-28 melanoma.
The test system of assay [7] is SK-OV-3 ovarian.
Assay [8] has as its system SR leukemia.
Assay [9] concerns SW-620 colon.
The subject of assay [10] is BT-549 breast.

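Briefly, cells in 96-well plates were exposed to five compound concentrations for 48 h, and endpoints were estimated by linear interpolation. GI50: concentration for 50% inhibition of growth. TGI: total growth inhibition.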 Some results are limits rather than exact numbers.

Turning to `CC(=O)c1c(-c2ccc(Cl)cc2)c(C#N)c(=S)n(C2OC(CO)C(O)C(O)C2O)c1C` (configuration not stated), the TGI in assay [1] is more than 100 µM; in [2] it was more than 100 µM; in assay [3] it was more than 100 µM; in assay [4], more than 100 µM; in [5], more than 100 µM; in [6], 87.6 µM. The TGI was more than 100 µM in assay [7] and 87.6 µM in assay [8].
`CN1C(c2ccccc2)CC(O)CC1c1ccccc1` (configuration not stated): the TGI in [1], in [2], in assay [4], in [5], in [6] and in assay [7] was more than 100 µM in each case. Further, the TGI in [8] and in assay [9] was more than 100 µM in each case.
Take `O=C(Nc1ccc(-n2cc(-c3ccncc3)c(-c3ccc(O)c(Cl)c3)n2)cc1)Nc1cc(C(F)(F)F)cc(C(F)(F)F)c1`: the GI50 in assay [1] is 8.94 µM; in assay [2], 3.6 µM; in [3], 3.37 µM; in assay [4], 3.63 µM; in [5], 4.37 µM; in [6], 4.48 µM. Moreover, the GI50 in assay [8] is 6.06 µM; in assay [9], 5.93 µM. The TGI in assay [1] is 22.7 µM; in assay [2], 13.6 µM; in assay [3] it was 12.8 µM; in assay [4], 18.4 µM; in [5], 16 µM; in assay [6], 16.5 µM. The results for the TGI in [8] and in assay [9] were 31.3 µM and 22 µM, respectively.
For the compound `O=[N+]([O-])/C=C/c1cc(Cl)c(/C=C/[N+](=O)[O-])cc1Cl`, the TGI in [10] came to 3.25 µM; in [1] it was 5.78 µM; in assay [2], 4.37 µM; in [3] it was 4.17 µM; in assay [4], 22.5 µM; in assay [5], 16.5 µM. Further, the values for the TGI in assay [7] and in assay [9] were more than 56.6 µM and 6.06 µM, respectively.
`Cc1ccc(S(=O)(=O)NC(=O)Nc2ccc(C(=O)O)cc2)cc1`: the TGI in assay [10], in [1], in [2], in assay [4], in assay [5] and in assay [6] was more than 100 µM each time. Further, the TGI in assay [7] and in [9] was more than 100 µM in each case.
On to `COc1cc2c(cc1OC)C1=C(C=O)c3ccc(OC)c(OC)c3C(O)N1CC2` (configuration not stated), for which the TGI in assay [10] was 70.1 µM; in assay [1] it was more than 100 µM; in [2], 78.1 µM; in assay [3], more than 100 µM; in assay [4], 57.1 µM; in assay [5], more than 100 µM. Besides, the TGI in assay [6], in [7] and in [9] was more than 100 µM throughout.
With `O=C1Nc2noc(=O)nc2NO1`, the TGI in assay [10], in assay [1], in assay [2], in [3], in assay [4] and in [5] was more than 200 µM in each case. Further, the TGI in [6], in assay [7] and in [9] was more than 200 µM throughout.
Consider `C/C(=N/NC(=S)Nc1ccc(C)cc1)c1ccccn1`, for which the TGI stood at 18.7 µM in [10]; 19.4 µM in assay [1]; 2.37 µM in assay [2]; 15 µM in assay [3]; 16.1 µM in [4]; 16.4 µM in [5]. Moreover, the TGI in assay [6] turned out to be 24.3 µM; in [7], 17 µM; in assay [9], 18.6 µM.
Take `O=C(O)C1CCC(=O)N1C(=O)COc1cc(Cl)c(Cl)cc1Cl` (configuration not stated): the TGI in assay [1], in assay [2], in assay [4], in [5], in [6] and in assay [7] was more than 100 µM throughout. The compound also had a TGI in assay [9] of more than 100 µM.
With `CC(=O)O[C@H]1CC[C@@H](OC(C)=O)[C@H]2[C@H](O)[C@H](O)[C@@H]1n1c(=O)n(-c3ccccc3)c(=O)n12`, the TGI in assay [10], in assay [1], in [2], in [3], in assay [4] and in assay [5] was more than 100 µM throughout. The TGI in assay [6] and in assay [9] was more than 100 µM throughout.
In the case of `Cc1nc(C(=Nc2ccc(Br)cc2)Nn2cnnc2)no1`, the TGI in assay [10], in [1], in assay [2], in assay [3], in [4] and in assay [6] was more than 100 µM throughout. Moreover, the TGI in [7] and in [9] was more than 100 µM throughout.
Turning to `CCCCCCCCCCCCOCC(COP(=O)(O)OCCN=[N+]=[N-])OC(=O)CCCCCCCCCCC` (configuration not stated), the TGI in assay [1], in assay [2], in [3], in assay [4], in assay [5] and in assay [6] was more than 100 µM throughout. Also, the TGI in [7] and in assay [9] was more than 100 µM throughout.
Consider `Clc1[nH]nc2ccccc12`, for which the TGI in assay [10], in assay [1], in assay [2], in assay [3], in [4] and in [5] was more than 100 µM in each case. For the same compound, the TGI in [6], in assay [7] and in assay [9] was more than 100 µM in each case.
Turning to `CC(=O)OC12c3ccccc3C(c3ccccc31)C1C(=O)N(N=C(C)C)C(=O)C12` (configuration not stated), the TGI in assay [10], in [1], in assay [2], in assay [4], in [5] and in assay [6] was more than 100 µM throughout. Besides, the TGI in [7], in assay [8] and in [9] was more than 100 µM throughout.
Take `COCOC1CCCC[C@@]1(OCCOCCO[C@@]1(c2ccccc2)CCCC[C@H]1OCOC)c1ccccc1` (some centres not stated): the TGI in assay [1], in assay [2], in [4], in [5], in assay [6] and in assay [7] was more than 100 µM throughout. Besides, the TGI in assay [8] and in assay [9] was more than 100 µM throughout.
